Legend:
[1] = system: α- or β-glycohydrolase activity; details: except for trehalase; cited from earlier work
trehalase activity = experiment: Trehalose accumulation in potato microtubers induced on medium with Validamycin A; format: cell-based, Solanum tuberosum cv. Kardal; details: for Trehalose (% fresh weight), +Validamycin A: 10^−3M Validamycin A
Description: Stem segments of in vitro potato plants harbouring an auxiliary meristem were transferred to micro-tuber inducing medium. Micro-tuber inducing medium contains 1×MS-salts supplemented with R3 vitamins, 0.5 g/l MES (final pH=5.8, adjusted with KOH) and solidified with 8 g/l Daichin agar, 60 g/l sucrose and 2.5 mg/l kinetin. After 3 to 5 weeks of growth in the dark at 24° C., micro-tubers were formed.
Validamycin A was isolated from Solacol, a commercial agricultural formulation (Takeda Chem. Indust., Tokyo) as described by Kendall et al. (1990) Phytochemistry 29, 2525. The procedure involves ion-exchange chromatography (QAE-Sephadex A-25 (Pharmacia), bed vol. 10 ml, equilibration buffer 0.2 mM Na-Pi pH 7) from a 3% agricultural formulation of Solacol. Loading 1 ml of Solacol on the column and eluting with water in 7 fractions, practically all Validamycin was recovered in fraction 4. Based on a 100% recovery, using this procedure, the concentration of Validamycin A was adjusted to 1.10^−3M in MS-medium, for use in trehalose accumulation tests. Alternatively, Validamycin A and B may be purified directly from Streptomyces hygroscopicus var. limoneus, as described by Iwasa et al. (1971) J. Antibiot. 24, 119, the content of which is incorporated herein by reference.
Carbohydrates were determined quantitatively by anion exchange chromatography with pulsed electrochemical detection. Extracts were prepared by extracting homogenized frozen material with 80% EtOH. After extraction for 15 minutes at room temperature, the soluble fraction is evaporated and dissolved in distilled water. Samples (25 μl) were analyzed on a Dionex DX-300 liquid chromatograph equipped with a 4×250 mm Dionex 35391 carbopac PA-1 column and a 4×50 mm Dionex 43096 carbopac PA-1 precolumn. Elution was with 100 mM NaOH at 1 ml/min followed by a NaAc gradient. Sugars were detected with a pulsed electrochemical detector (Dionex, PED). Commercially available carbohydrates (Sigma) were used as a standard.
Transgenic potato plants were generated harbouring the otsA gene driven by the potato tuber-specific patatin promoter (pMOG845). Potato Solanum tuberosum cv. Kardal tuber discs were transformed with Agrobacterium tumefaciens EHA105 harbouring the binary vector pMOG845. […] All plants obtained were phenotypically indistinguishable from wild type plants. […] The presence of small amounts of trehalose in wild-type plants indicates the presence of a functional trehalose biosynthetic pathway.

Structure (SMILES): OCC1=C[C@H](N[C@H]2C[C@H](CO)[C@@H](O[C@@H]3O[C@H](CO)[C@@H](O)[C@H](O)[C@H]3O)[C@H](O)[C@H]2O)[C@H](O)[C@@H](O)[C@@H]1O [Validamycin A, 1,5,6-trideoxy-3-o-β-D-glucopyranosyl-5-(hydroxymethyl)-1-[[4,5,6-trihydroxy-3-(hydroxymenthyl)-2-cyclohexen-1-yl]amino]-D-chiro-inositol]
- Inhibition of α- or β-glycohydrolase activity other than trehalase [1]: does not significantly inhibit
- Trehalose level in microtubers versus medium without Validamycin A (trehalase activity; microtuber-inducing medium with 10^−3M Validamycin A, transgenic pMOG845 and wild-type plants): elevated levels of trehalose
- Trehalose (% fresh weight), +Validamycin A (trehalase activity; microtubers of transgenic line 845-2 (pat-TPS)): 0.016 % fresh weight
- Trehalose (% fresh weight), +Validamycin A (trehalase activity; microtubers of transgenic line 845-8 (pat-TPS)): 0.051 % fresh weight
- Trehalose (% fresh weight), +Validamycin A (trehalase activity; microtubers of transgenic line 845-11 (pat-TPS)): 0.015 % fresh weight
- Trehalose (% fresh weight), +Validamycin A (trehalase activity; microtubers of transgenic line 845-13 (pat-TPS)): 0.011 % fresh weight
- Trehalose (% fresh weight), +Validamycin A (trehalase activity; microtubers of transgenic line 845-22 (pat-TPS)): 0.112 % fresh weight
- Trehalose (% fresh weight), +Validamycin A (trehalase activity; microtubers of transgenic line 845-25 (pat-TPS)): 0.002 % fresh weight
- Trehalose (% fresh weight), +Validamycin A (trehalase activity; microtubers of transgenic line 845-28 (pat-TPS)): 0.109 % fresh weight
- Trehalose (% fresh weight), +Validamycin A (trehalase activity; microtubers of wild-type Kardal): 0.001 % fresh weight

Source: patent publication US20030177531A1, “Regulating metabolism by modifying the level of trehalose-6-phosphate by inhibiting endogenous trehalase levels” (Mogen International N.V., priority 1997, published 2003)
